Here are results for two compounds from ChEMBL document CHEMBL3045164, “Combination of flavopiridol and embelin effectively inhibit cell growth in hepatocellular carcinoma depending on regulatory relationship between CDK6 and XIAP” (Med Chem Res, 2012).

Usually IC50 stands for the point on the concentration scale where inhibition reaches its midpoint.

Structures are written as SMILES. Calls of active or inactive are those of the source. The rule behind the calls is not given here.

For test [1], the species on record is Homo sapiens. Nature of the test: Cytotoxicity against Homo sapiens (human) HepG2(2.2.1) cells assessed as growth inhibition at 15 uM after 24 to 72 hr by WST-8 assay. The test is classed as functional, cell-based.
For test [2], the species on record is Homo sapiens. The test can be described thus: Cytotoxicity against Homo sapiens (human) HepG2(2.2.1) cells assessed as growth inhibition at 10 uM after 24 to 72 hr by WST-8 assay. The format is functional, cell-based.
Test [3] is filed under the species Homo sapiens. The test can be described thus: Cytotoxicity against Homo sapiens (human) HepG2(2.2.1) cells assessed as growth inhibition at 20 uM after 24 to 72 hr by WST-8 assay. The format is functional, cell-based. For orientation: Tetrazolium assays rely on reduction of a dye to a coloured formazan, in cell work by metabolically active cells.
The species entered for test [4] is Homo sapiens. Nature of the test: Cytotoxicity against Homo sapiens (human) HepG2(2.2.1) cells assessed as growth inhibition at 75 nM after 24 to 72 hr by WST-8 assay. The format is functional, cell-based.
The species entered for test [5] is Homo sapiens. The test can be described thus: Cytotoxicity against Homo sapiens (human) HepG2(2.2.1) cells assessed as growth inhibition at 100 nM after 24 to 72 hr by WST-8 assay in presence of 75 uM XIAP inhibitor embelin. The format is functional, cell-based.
Test [6] is filed under the species Homo sapiens. Nature of the test: Cytotoxicity against Homo sapiens (human) HepG2(2.2.1) cells assessed as growth inhibition at 75 nM after 24 to 72 hr by WST-8 assay in presence of 15 uM XIAP inhibitor embelin. The test is classed as functional, cell-based.
For test [7], the species on record is Homo sapiens. The test can be described thus: Cytotoxicity against Homo sapiens (human) HepG2(2.2.1) cells assessed as growth inhibition at 50 nM after 24 to 72 hr by WST-8 assay. The test is classed as functional, cell-based.
Test [8] is filed under the species Homo sapiens. The test can be described thus: Cytotoxicity against Homo sapiens (human) HepG2(2.2.1) cells assessed as growth inhibition at 50 nM after 24 to 72 hr by WST-8 assay in presence of 10 uM XIAP inhibitor embelin. The test is classed as functional, cell-based.
Test [9] concerns the target G1/S-specific cyclin-D1 (Homo sapiens) (UniProt P24385). Nature of the test: Inhibition of cyclin D1 in Homo sapiens (human) HepG2(2.2.1) cells assessed as downregulation of XIAP expression at 500 nM after 24 hr by Western blot analysis. (In general: A western blot detects proteins with antibodies after separation by electrophoresis.)
The target of test [10] is Cyclin-dependent kinase 6 (Homo sapiens) (UniProt Q00534). The test can be described thus: Inhibition of CDK6 in Homo sapiens (human) HepG2(2.2.1) cells assessed as downregulation of XIAP expression at 500 nM after 24 hr by Western blot analysis.
The target of test [11] is Cyclin-dependent kinase 4 (Homo sapiens) (UniProt P11802). The test can be described thus: Inhibition of CDK4 in Homo sapiens (human) HepG2(2.2.1) cells assessed as downregulation of XIAP expression at 500 nM after 24 hr by Western blot analysis.
Test [12] can be described thus: Downregulation of CDK2 expression in Homo sapiens (human) HepG2(2.2.1) cells at 500 nM after 24 hr by Western blot analysis. The test is classed as functional.
Test [13] is described as follows: Downregulation of CDK1 expression in Homo sapiens (human) HepG2(2.2.1) cells at 500 nM after 24 hr by Western blot analysis. The test is classed as functional.
A short description of test [14]: Downregulation of XIAP expression in Homo sapiens (human) HepG2(2.2.1) cells after 24 hr by Western blot analysis. The format is functional.
Test [15] is described as follows: Downregulation of XIAP expression in Homo sapiens (human) HepG2(2.2.1) cells at 500 nM after 24 hr by Western blot analysis. The test is classed as functional.
The nature of test [16]: Downregulation of CDK6 expression in Homo sapiens (human) HepG2(2.2.1) cells at 500 nM after 24 hr by Western blot analysis. The format is functional.
Test [17] in a line: Downregulation of CDK4 expression in Homo sapiens (human) HepG2(2.2.1) cells at 500 nM after 24 hr by Western blot analysis. The test is classed as functional.
Test [18] is described as follows: Downregulation of cyclin D1 expression in Homo sapiens (human) HepG2(2.2.1) cells at 500 nM after 24 hr by Western blot analysis. The format is functional.
Test [19] is described as follows: Induction of apoptosis in Homo sapiens (human) HepG2(2.2.1) cells at 500 nM after 24 hr by annexin V-FITC/propidium iodide staining-based flow cytometric analysis (reference value: 2.20%). The test is classed as functional. Background: A flow cytometer gives signals particle by particle.
Test [20] in a line: Cell cycle arrest in Homo sapiens (human) HepG2(2.2.1) cells assessed as accumulation at G2 phase at 500 nM after 24 hr by propidium iodide staining-based flow cytometric analysis (reference value: 24.38 +/- 2.02 %). The format is functional.
Test [21] can be described thus: Cell cycle arrest in Homo sapiens (human) HepG2(2.2.1) cells assessed as accumulation at S phase at 500 nM after 24 hr by propidium iodide staining-based flow cytometric analysis (reference value: 22.55 +/- 2.98 %). The format is functional.
The nature of test [22]: Cell cycle arrest in Homo sapiens (human) HepG2(2.2.1) cells assessed as accumulation at G1 phase at 500 nM after 24 hr by propidium iodide staining-based flow cytometric analysis (reference value: 53.07 +/- 3.01 %). The test is classed as functional.
Test [23] is described as follows: Cell cycle arrest in Homo sapiens (human) HepG2(2.2.1) cells assessed as accumulation at G2 phase at 300 nM after 24 hr by propidium iodide staining-based flow cytometric analysis (reference value: 24.38 +/- 2.02 %). The format is functional.
Test [24] is described as follows: Cell cycle arrest in Homo sapiens (human) HepG2(2.2.1) cells assessed as accumulation at S phase at 300 nM after 24 hr by propidium iodide staining-based flow cytometric analysis (reference value: 22.55 +/- 2.98 %). The format is functional.
A short description of test [25]: Cell cycle arrest in Homo sapiens (human) HepG2(2.2.1) cells assessed as accumulation at G1 phase at 300 nM after 24 hr by propidium iodide staining-based flow cytometric analysis (reference value: 53.07 +/- 3.01 %). The format is functional.
Test [26] is described as follows: Cell cycle arrest in Homo sapiens (human) HepG2(2.2.1) cells assessed as accumulation at G2 phase at 100 nM after 24 hr by propidium iodide staining-based flow cytometric analysis (reference value: 24.38 +/- 2.02 %). The format is functional.
A short description of test [27]: Cell cycle arrest in Homo sapiens (human) HepG2(2.2.1) cells assessed as accumulation at S phase at 100 nM after 24 hr by propidium iodide staining-based flow cytometric analysis (reference value: 22.55 +/- 2.98 %). The format is functional.
The species named for test [28] is Homo sapiens. Nature of the test: Cytotoxicity against Homo sapiens (human) HepG2(2.2.1) cells assessed as growth inhibition at 100 nM after 24 to 72 hr by WST-8 assay. The format is functional, cell-based.
A short description of test [29]: Cell cycle arrest in Homo sapiens (human) HepG2(2.2.1) cells assessed as accumulation at G1 phase at 100 nM after 24 hr by propidium iodide staining-based flow cytometric analysis (reference value: 53.07 +/- 3.01 %). The test is classed as functional.
Test [30] can be described thus: (§1) Cytotoxicity against Homo sapiens (human) HepG2(2.2.1) cells assessed as growth inhibition after 24 to 72 hr by WST-8 assay. The test is classed as functional, cell-based.
Test [31] is filed under the species Homo sapiens. Described as §1. The format is functional, cell-based.

G1/S-specific cyclin-D1 (Homo sapiens), sequence (P24385 whole entry): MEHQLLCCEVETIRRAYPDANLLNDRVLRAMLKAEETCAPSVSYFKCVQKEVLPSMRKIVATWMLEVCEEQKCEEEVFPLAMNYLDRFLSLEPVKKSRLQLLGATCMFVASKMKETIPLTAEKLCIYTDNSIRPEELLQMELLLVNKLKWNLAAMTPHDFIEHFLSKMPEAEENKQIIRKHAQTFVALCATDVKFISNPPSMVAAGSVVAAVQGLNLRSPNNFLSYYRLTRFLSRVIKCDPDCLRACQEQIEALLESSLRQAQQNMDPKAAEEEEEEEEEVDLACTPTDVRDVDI
Cyclin-dependent kinase 4 (Homo sapiens), sequence (P11802 whole entry): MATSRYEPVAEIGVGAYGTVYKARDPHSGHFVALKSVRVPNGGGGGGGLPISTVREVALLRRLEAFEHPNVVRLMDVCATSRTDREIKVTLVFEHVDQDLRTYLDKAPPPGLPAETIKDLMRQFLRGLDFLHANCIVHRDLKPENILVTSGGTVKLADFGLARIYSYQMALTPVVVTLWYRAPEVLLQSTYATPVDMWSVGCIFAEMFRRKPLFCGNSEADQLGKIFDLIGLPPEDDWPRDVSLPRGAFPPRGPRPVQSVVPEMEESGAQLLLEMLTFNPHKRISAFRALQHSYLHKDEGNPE
Cyclin-dependent kinase 6 (Homo sapiens), sequence (Q00534 whole entry): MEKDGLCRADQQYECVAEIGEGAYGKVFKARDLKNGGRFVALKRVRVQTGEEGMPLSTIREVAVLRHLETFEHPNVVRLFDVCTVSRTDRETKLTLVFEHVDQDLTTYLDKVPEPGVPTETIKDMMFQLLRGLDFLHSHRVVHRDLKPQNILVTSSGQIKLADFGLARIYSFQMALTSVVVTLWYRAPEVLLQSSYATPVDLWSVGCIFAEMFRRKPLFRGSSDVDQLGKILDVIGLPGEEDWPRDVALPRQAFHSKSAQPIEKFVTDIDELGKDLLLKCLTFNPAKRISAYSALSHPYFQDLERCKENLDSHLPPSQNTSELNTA

With `CCCCCCCCCCCC1=C(O)C(=O)C=C(O)C1=O`, the “growth inhibition (GI)” value in the test filed under Homo sapiens [1], in the test filed under Homo sapiens [2] and in the test filed under Homo sapiens [3] was “Active” in each case.

For `CN1CC[C@H](c2c(O)cc(O)c3c(=O)cc(-c4ccccc4Cl)oc23)[C@H](O)C1` [ALVOCIDIB], the “growth inhibition (GI)” value in the test listed under Homo sapiens [4], in the test filed under Homo sapiens [5], in the test filed under Homo sapiens [6], in the test filed under Homo sapiens [7], in the test filed under Homo sapiens [8] and in the test filed under Homo sapiens [28] was “Active” each time. For the same compound, the inhibition result in test [9], in test [10] and in [11] was “Active” in each case. Besides, the result in [12] and in test [13] was inactive. Besides, the Activity result in test [14] is “Dose-dependent effect”; in [19], 14.28%; in test [20], 20.9%; in test [21] it was 21.2%; in test [22] it was 57.9%; in test [23], 15.7%. Moreover, the Activity in test [24] is 27.9%; in [25], 56.4%; in [26], 23.2%; in test [27], 22.2%; in [29], 54.6%. In addition, the outcome in test [15], in [16], in test [17] and in test [18] was Active. Also, the IC50 in [30] amounted to 200 nM. In addition, the “growth inhibition (GI)” value in the test listed under Homo sapiens [31] is “Dose-dependent effect”.
